The source made the active and inactive calls.
What was measured:
[1] = target: E3 ubiquitin-protein ligase Mdm2 (Homo sapiens, UniProt Q00987); test: MDM2-luc reporter signal enhancers, multi-concentration potency testing, MDM2 ubiquitin-protein ligase inhibitor program, whole-cell format, luminescence detection, 384-well microplate (AID 1394); assay type: functional;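 also: MDM2 E3 inhibitors raise luminescence so EC50 is for signal enhancement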
[2] = target: T1, Heat shock factor protein 1 (Mus musculus, UniProt P38532); test: decrease of HSF1-responsive luciferase luminescence – cell-based, NIH3T3, dose retest, confirmation (AID 2382); assay type: functional;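 also: NIH3T3 fibroblasts with HSF1-driven luciferase reporter stressed by proteasome inhibitor MG132; luminescence from HSF1-driven luciferase expression after 8 hours of MG132 stress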
T1 sequence (P38532 whole entry): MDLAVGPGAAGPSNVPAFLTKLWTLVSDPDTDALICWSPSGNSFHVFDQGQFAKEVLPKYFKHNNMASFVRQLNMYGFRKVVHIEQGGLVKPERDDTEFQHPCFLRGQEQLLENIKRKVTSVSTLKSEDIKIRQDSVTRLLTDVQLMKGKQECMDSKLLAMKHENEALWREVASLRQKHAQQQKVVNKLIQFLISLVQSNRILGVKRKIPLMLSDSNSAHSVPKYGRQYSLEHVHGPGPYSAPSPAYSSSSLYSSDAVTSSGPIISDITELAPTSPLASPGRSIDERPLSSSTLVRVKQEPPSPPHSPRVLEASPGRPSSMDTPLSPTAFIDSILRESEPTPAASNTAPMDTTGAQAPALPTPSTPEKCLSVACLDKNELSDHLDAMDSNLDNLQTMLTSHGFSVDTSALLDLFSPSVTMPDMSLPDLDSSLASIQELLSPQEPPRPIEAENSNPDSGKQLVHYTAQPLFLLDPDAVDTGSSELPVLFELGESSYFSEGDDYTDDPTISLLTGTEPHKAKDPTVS

Vero = test: cells; assay type: functional; conditions: Chlorocebus sabaeus
Paired box protein Pax-8 = Paired box protein Pax-8 (Homo sapiens, UniProt Q06710); test: PAX8 transcriptional activity inhibition in RMG-I – RMG-I cells, luciferase, cherry-pick, dose response (AID 687027); assay type: functional, cell-based;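 also: luciferase reporter driven by Pax8 target thyroperoxidase promoter measured by SteadyGlo luminescence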
[3] = target: T2, Tyrosine-protein phosphatase non-receptor type 7 (Homo sapiens, UniProt P35236); test: HePTP tyrosine phosphatase activity blockers – biochemical, absorbance, leukemia target, primary screen (AID 521); assay type: functional
T2 sequence (P35236 whole entry): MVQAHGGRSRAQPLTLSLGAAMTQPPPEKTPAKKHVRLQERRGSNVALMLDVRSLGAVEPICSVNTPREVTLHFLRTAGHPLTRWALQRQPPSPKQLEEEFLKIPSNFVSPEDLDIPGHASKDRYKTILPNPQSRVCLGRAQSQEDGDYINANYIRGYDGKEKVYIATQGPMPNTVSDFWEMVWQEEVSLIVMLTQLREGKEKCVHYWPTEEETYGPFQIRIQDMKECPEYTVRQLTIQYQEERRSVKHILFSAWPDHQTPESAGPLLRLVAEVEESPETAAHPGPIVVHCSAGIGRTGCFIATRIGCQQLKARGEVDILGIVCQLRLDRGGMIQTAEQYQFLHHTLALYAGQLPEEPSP

Chain of E3 ubiquitin-protein ligase Mdm2 (Q00987 whole entry): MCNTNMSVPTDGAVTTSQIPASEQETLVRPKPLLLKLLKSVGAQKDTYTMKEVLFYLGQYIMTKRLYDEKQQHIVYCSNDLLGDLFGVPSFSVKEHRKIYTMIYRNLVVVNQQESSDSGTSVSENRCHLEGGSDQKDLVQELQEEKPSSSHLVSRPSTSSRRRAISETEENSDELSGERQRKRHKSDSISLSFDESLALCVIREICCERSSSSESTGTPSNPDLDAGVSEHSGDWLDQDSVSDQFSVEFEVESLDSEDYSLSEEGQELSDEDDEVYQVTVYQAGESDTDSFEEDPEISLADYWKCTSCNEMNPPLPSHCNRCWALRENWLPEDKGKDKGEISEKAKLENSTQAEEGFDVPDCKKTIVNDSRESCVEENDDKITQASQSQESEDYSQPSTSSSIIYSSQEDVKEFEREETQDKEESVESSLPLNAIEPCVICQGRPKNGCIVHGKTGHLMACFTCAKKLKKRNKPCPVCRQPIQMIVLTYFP
Chain of Paired box protein Pax-8 (Q06710 whole entry): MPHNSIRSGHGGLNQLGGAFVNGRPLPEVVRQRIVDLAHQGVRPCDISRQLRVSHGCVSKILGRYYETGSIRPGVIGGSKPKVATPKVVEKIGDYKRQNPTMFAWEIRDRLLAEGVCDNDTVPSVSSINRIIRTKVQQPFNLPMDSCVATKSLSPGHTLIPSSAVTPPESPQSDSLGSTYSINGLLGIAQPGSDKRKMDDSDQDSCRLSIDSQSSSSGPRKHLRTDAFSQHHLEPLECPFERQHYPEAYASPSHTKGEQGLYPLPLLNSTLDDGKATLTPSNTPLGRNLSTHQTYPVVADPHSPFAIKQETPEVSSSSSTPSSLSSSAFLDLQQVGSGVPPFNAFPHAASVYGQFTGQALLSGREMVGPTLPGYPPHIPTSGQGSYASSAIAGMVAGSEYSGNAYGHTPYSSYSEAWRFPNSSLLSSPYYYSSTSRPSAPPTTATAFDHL

SMILES | EC50 [1] | EC50 [2] | CC50 (Vero) | AC50 (Paired box protein Pax-8) | IC50 [3]
COc1cc(/C=C2\COC/C(=C\c3cc(OC)c(OC)c(OC)c3)C2=O)cc(OC)c1OC | 182 µM (active) | > 195 µM (not active) | 2.07 µM (active) | 1.56 µM (active) | 
O=C(NCc1cccc(C(F)(F)F)c1)C1CCCN(c2ncccn2)C1 (stereo not given) |  |  |  |  | > 100 µM (not active)

Source: ChEMBL document CHEMBL1201862, “PubChem BioAssay data set” (2004)
